Legend:
Test in all cases: CTG-3D luminescence at 96 h relative to day-0 seeding control (ratio to day 0); higher = more growth / less cytotoxicity; PDxO 3D drug screen, 96 h, CTG-3D normalised to day-0 seeding control.
HCI-008 = tested on: HCI-008 (organoid from a HER2-enriched breast cancer xenograft)
HCI-002 = tested on: HCI-002 (organoid from a triple-negative breast cancer xenograft)
HCI-023 = tested on: HCI-023 (organoid from a triple-negative breast cancer xenograft)
HCI-024 = tested on: HCI-024 (organoid from a breast cancer xenograft)
HCI-017.E2 = tested on: HCI-017.E2 (organoid from an ER-positive breast cancer xenograft)

CC1(C)CCC(c2ccc(Cl)cc2)=C(CN2CCN(c3ccc(C(=O)NS(=O)(=O)c4ccc(N[C@H](CCN5CCOCC5)CSc5ccccc5)c(S(=O)(=O)C(F)(F)F)c4)cc3)CC2)C1 [navitoclax]
CTG-3D luminescence at 96 h
Conditions	12.5 pM	0.00025 µM	0.005 µM	0.1 µM	1 µM	10 µM	100 µM	625 fM
HCI-002, days in culture: 62	3.12	2.9	3.78	2.92	2.42	1.07	0.00133	3.47
HCI-002, days in culture: 82	3.88	4.28	2.86	2.91	2.86	1.36	0.00885	3.44
HCI-002, days in culture: 91	3.48	2.91	2.21	2.3	1.97	1.73	0.00844	3.14
HCI-002, days in culture: 191	3.36	3.04	3.27	3.13	2.63	1.29	-0.105	3.4
HCI-002, days in culture: 209	2.83	3.07	2.6	2.13	1.85	1.18	-0.00717	2.97
HCI-002, days in culture: 227	5.11	5.2	4.65	4.75	3.73	3.27	0.0214	5.74
HCI-008, days in culture: 228	1.53	1.62	1.55	1.61	1.2	0.854	0.0594	1.77
HCI-008, days in culture: 244	1.31	1.99	1.94	2.06	1.57	0.824	0.0293	2.52
HCI-017.E2, days in culture: 85	2.05	1.26	2.18	1.93	1.57	1.98	0.14	1.51
HCI-023, days in culture: 111	1.82	1.42	1.19	1.26	0.739	0.432	0.0151	1.83
HCI-023, days in culture: 128	1.58	1.8	1.53	1.82	1.1	0.995	0.00828	1.58
HCI-024, days in culture: 105	1.44	1.51	1.24	1.47	1.01	1.1	0.182	1.59
HCI-024, days in culture: 122	1.5	2.32	1.85	1.88	1.6	1.52	0.266	2.7
HCI-024, days in culture: 163	1.88	2.19	1.74	2.8	1.99	1.74	0.357	2.54

HCI-017.E2
Conditions	CTG-3D luminescence at 96 h
12.5 pM	1.6
0.00025 µM	2
0.005 µM	1.8
0.1 µM	1.81
1 µM	1.78
10 µM	1.7
100 µM	0.043
625 fM	1.812

NC(=O)c1cccc2cn(-c3ccc([C@@H]4CCCNC4)cc3)nc12 [niraparib]
CTG-3D luminescence at 96 h
Conditions	12.5 pM	0.00025 µM	0.005 µM	0.1 µM	1 µM	10 µM	100 µM	625 fM
HCI-002, days in culture: 62	3.51	3	3.42	2.62	1.36	0.533	-0.0877	3.34
HCI-002, days in culture: 82	3.5	3.51	2.69	2.16	1.29	0.381	-0.026	2.77
HCI-002, days in culture: 91	2.87	2.3	1.8	1.74	1.11	0.377	-0.0114	2.66
HCI-002, days in culture: 191	3.37	2.98	3.35	2.51	1.99	0.811	-0.139	3.21
HCI-002, days in culture: 209	2.84	2.96	2.54	1.96	1.18	0.302	-0.0818	2.86
HCI-002, days in culture: 227	4.63	5.21	4.64	3.79	2.08	0.87	-0.0133	5.51
HCI-008, days in culture: 228	1.87	1.97	1.45	1.55	1.34	0.828	0.00065	1.72
HCI-008, days in culture: 244	1.42	1.98	1.91	2.31	1.77	1.17	-0.000168	2.42
HCI-017.E2, days in culture: 85	2.25	2.22	2.21	2.63	2.09	1.81	0.00236	1.95
HCI-023, days in culture: 111	1.92	1.44	1.58	1.16	0.886	0.393	-0.00664	1.85
HCI-023, days in culture: 128	1.57	1.57	1.61	1.42	0.892	0.695	0.00157	1.67
HCI-024, days in culture: 105	1.48	1.61	1.14	1.43	1.44	1.27	0.00247	1.56
HCI-024, days in culture: 122	2.12	2.38	2.08	1.71	1.88	1.29	0.00108	2.15
HCI-024, days in culture: 163	1.73	1.86	1.82	2.37	1.78	1.17	0.00351	2.44

HCI-017.E2
Conditions	CTG-3D luminescence at 96 h
12.5 pM	1.823
0.00025 µM	1.66
0.005 µM	1.89
0.1 µM	1.61
1 µM	1.48
10 µM	1.58
100 µM	0.00319
625 fM	1.94

CC(=O)O[C@H]1C(=O)[C@@]2(C)[C@H]([C@H](OC(=O)c3ccccc3)[C@]3(O)C[C@H](OC(=O)[C@H](O)[C@@H](NC(=O)c4ccccc4)c4ccccc4)C(C)=C1C3(C)C)[C@]1(OC(C)=O)CO[C@@H]1C[C@@H]2O [paclitaxel]
CTG-3D luminescence at 96 h
Conditions	12.5 pM	0.00025 µM	0.005 µM	0.1 µM	1 µM	10 µM	100 µM	625 fM
HCI-002, days in culture: 62	2.36	2.52	1.34	0.186	0.146	0.236	0.316	2.73
HCI-002, days in culture: 82	3.27	3.2	0.859	0.217	0.193	0.224	0.174	2.8
HCI-002, days in culture: 91	3.82	3.68	1.54	0.26	0.19	0.258	0.36	4.44
HCI-002, days in culture: 191	2.76	2.96	1.17	0.23	0.192	0.252	0.474	2.61
HCI-002, days in culture: 209	2.24	2.21	1.2	0.194	0.195	0.158	0.174	2.26
HCI-002, days in culture: 227	5	5.22	3	0.418	0.279	0.365	0.464	5
HCI-008, days in culture: 228	1.67	1.93	0.719	0.575	0.627	0.764	0.554	1.55
HCI-008, days in culture: 244	1.16	1.96	1.22	0.925	0.832	0.852	0.58	2.02
HCI-017.E2, days in culture: 85	2.33	1.88	1.23	0.935	1.09	1.04	0.81	1.92
HCI-023, days in culture: 111	1.34	1.27	0.476	0.484	0.433	0.474	0.492	1.58
HCI-023, days in culture: 128	1.36	1.38	0.502	0.609	0.483	0.786	0.605	1.41
HCI-024, days in culture: 105	1.8	1.38	1.01	1.4	1.57	1.68	1.11	1.85
HCI-024, days in culture: 122	2.07	2.67	1.5	1.34	1.62	2.3	1.13	2.79
HCI-024, days in culture: 163	1.62	1.72	1.29	1.68	1.65	2.37	1.26	1.56

HCI-017.E2
Conditions	CTG-3D luminescence at 96 h
12.5 pM	1.06
0.00025 µM	1.2
0.005 µM	1.2
0.1 µM	1.2
1 µM	1.17
10 µM	1.23
100 µM	1.3
625 fM	1.35

C/C=C1\NC(=O)[C@H]2CSSCC/C=C/[C@H](CC(=O)N[C@H](C(C)C)C(=O)N2)OC(=O)[C@H](C(C)C)NC1=O [romidepsin]
CTG-3D luminescence at 96 h
Conditions	12.5 pM	0.00025 µM	0.005 µM	0.1 µM	1 µM	10 µM	100 µM	625 fM
HCI-002, days in culture: 62	3.13	2.76	0.0634	-0.0198	-0.0112	-0.0609	-0.0931	3.1
HCI-002, days in culture: 82	3.16	3.38	0.0989	0.0435	0.0464	-0.0117	-0.0289	2.85
HCI-002, days in culture: 91	2.94	2.73	0.0516	0.028	0.0172	0.000373	-0.0143	2.7
HCI-002, days in culture: 191	3.33	3.23	-0.0284	-0.0636	-0.0937	-0.0909	-0.148	3.22
HCI-002, days in culture: 209	2.88	2.68	0.0167	-0.00615	-0.0397	-0.0225	-0.0845	2.84
HCI-002, days in culture: 227	5.16	4.82	0.108	0.0548	0.0335	0.0109	-0.0188	5.69
HCI-008, days in culture: 228	1.78	1.7887	0.632	0.0457	0.0185	0.0061	-0.00528	2.13
HCI-008, days in culture: 244	1.41	2.08	0.607	0.0448	0.0206	0.00309	-0.0086	2.35
HCI-017.E2, days in culture: 85	2.46	2.08	1.87	0.329	0.2	0.0715	-0.00898	2.18
HCI-023, days in culture: 111	1.65	1.37	0.46	0.0304	0.0241	-0.00341	-0.0106	1.9
HCI-023, days in culture: 128	1.66	1.55	0.343	0.104	0.0518	0.00597	-0.00382	1.556
HCI-024, days in culture: 105	1.55	1.48	0.453	0.311	0.111	0.00592	-0.00576	1.92
HCI-024, days in culture: 122	1.84	2.34	0.619	0.277	0.107	0.00509	-0.00823	1.91
HCI-024, days in culture: 163	1.76	1.96	0.576	0.334	0.124	0.00767	-0.00793	1.96

HCI-017.E2
Conditions	CTG-3D luminescence at 96 h
12.5 pM	1.34
0.00025 µM	1.36
0.005 µM	0.657
0.1 µM	0.298
1 µM	0.151
10 µM	0.033
100 µM	-0.0104
625 fM	1.17
